# Measurements published in US7781591B2, “Substituted 3-cyanopyridines as protein kinase inhibitors” (Wyeth LLC, priority 2006, dated 2010).
# Biological target: T1, human PKCθ full length enzyme (Homo sapiens, UniProt Q04759)
# T1 construct: human PKCθ full length enzyme (Panvera Cat# P2996); purchased Panvera P2996
# Assay: PKCθ IMAP assay (fluorescence polarization)
# Format: biochemical
# Conditions: human PKCθ full length enzyme, IMAP; average value; read-out: IC50 PKCθ IMAP
# T1 sequence (Q04759 whole entry): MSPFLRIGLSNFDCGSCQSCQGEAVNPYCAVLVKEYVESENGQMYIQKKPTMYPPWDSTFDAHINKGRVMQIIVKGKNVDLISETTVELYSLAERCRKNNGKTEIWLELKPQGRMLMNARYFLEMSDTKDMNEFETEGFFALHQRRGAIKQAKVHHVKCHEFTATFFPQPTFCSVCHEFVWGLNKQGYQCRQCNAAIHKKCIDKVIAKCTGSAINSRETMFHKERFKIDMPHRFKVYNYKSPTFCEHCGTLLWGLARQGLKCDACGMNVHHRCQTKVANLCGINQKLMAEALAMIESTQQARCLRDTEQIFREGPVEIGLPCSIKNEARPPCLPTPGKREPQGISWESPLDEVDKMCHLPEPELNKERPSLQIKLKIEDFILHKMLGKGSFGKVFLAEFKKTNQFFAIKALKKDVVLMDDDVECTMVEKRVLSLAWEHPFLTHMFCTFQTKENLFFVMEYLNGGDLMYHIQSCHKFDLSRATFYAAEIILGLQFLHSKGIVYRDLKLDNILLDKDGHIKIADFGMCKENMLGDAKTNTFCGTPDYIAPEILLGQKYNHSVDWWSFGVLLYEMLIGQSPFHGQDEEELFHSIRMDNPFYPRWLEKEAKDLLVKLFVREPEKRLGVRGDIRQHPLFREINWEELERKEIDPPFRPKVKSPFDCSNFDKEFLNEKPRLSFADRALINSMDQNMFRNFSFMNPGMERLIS
row,Compound,IC50
1,"Cc1c(Nc2c(C#N)cncc2-c2ccc(NC(=O)N3CCOCC3)cc2)ccc2[nH]ccc12 [Compound 569, N-(4-{5-cyano-4-[(4-methyl-1H-indol-5-yl)amino]pyridin-3-yl}phenyl)morpholine-4-carboxamide]",59 nM
2,"CCN(CC)CCOc1cc(-c2cncc(C#N)c2Nc2ccc3[nH]ccc3c2)ccc1OC [Compound 179, 5-{3-[2-(diethylamino)ethoxy]-4-methoxyphenyl}-4-(1H-indol-5-ylamino)nicotinonitrile]",410 nM
3,"N#Cc1cncc(-c2cccc3c2oc2ccccc23)c1Nc1cccc2[nH]ccc12 [Compound 319, 5-dibenzo[b,d]furan-4-yl-4-(1H-indol-4-ylamino)nicotinonitrile]",60 nM
4,"COc1ccc(-c2cncc(C#N)c2Nc2ccc3[nH]ccc3c2)cc1OCCNC1CCCC1 [Compound 243, 5-{3-[2-(cyclopentylamino)ethoxy]-4-methoxyphenyl}-4-(1H-indol-5-ylamino)nicotinonitrile]",230 nM
5,"Cc1c(Nc2c(C#N)cncc2-c2ccc(OCCN3CCN(C)CC3)cc2Cl)ccc2[nH]ccc12 [Compound 470, 5-{2-chloro-4-[2-(4-methylpiperazin-1-yl)ethoxy]phenyl}-4-[(4-methyl-1H-indol-5-yl)amino]nicotinonitrile]",107 nM
6,"Cc1c(Nc2c(C#N)cncc2-c2cccc3cccnc23)ccc2[nH]ccc12 [Compound 590, 4-[(4-methyl-1H-indol-5-yl)amino]-5-quinolin-8-ylnicotinonitrile]",972 nM
7,"Cc1c(Nc2c(C#N)cncc2-c2ccc(OCCCCN3CCN(C)CC3)cc2)ccc2[nH]ccc12 [Compound 491, 4-[(4-methyl-1H-indol-5-yl)amino]-5-{4-[4-(4-methylpiperazin-1-yl)butoxy]phenyl}nicotinonitrile]",15 nM
8,"COc1ccc(-c2cncc(C#N)c2Nc2ccc3[nH]ccc3c2)cc1OCCNCc1ccncc1 [Compound 240, 4-(1H-indol-5-ylamino)-5-(4-methoxy-3-{2-[(pyridin-4-ylmethyl)amino]ethoxy}phenyl)nicotinonitrile]",80 nM
9,"Cc1cc2[nH]ccc2cc1Nc1c(C#N)cncc1-c1cc2ccccc2o1 [Compound 413, 5-(1-benzofuran-2-yl)-4-[(6-methyl-1H-indol-5-yl)amino]nicotinonitrile]",55 nM
10,"CN1CCN(CCOc2ccc(-c3cncc(C#N)c3Nc3ccc4[nH]ccc4c3)cc2)CC1 [Compound 520, 4-(1H-indol-5-ylamino)-5-{4-[2-(4-methylpiperazin-1-yl)ethoxy]phenyl}nicotinonitrile]",73 nM

# Further lines, results first:
row,IC50,Compound
1,5 nM,"Cc1c(Nc2c(C#N)cncc2-c2csc(C=O)c2)ccc2[nH]ccc12 [Compound 516, 5-(5-formyl-3-thienyl)-4-[(4-methyl-1H-indol-5-yl)amino]nicotinonitrile]"
2,42 nM,"Cc1c(Nc2c(C#N)cncc2-c2nccn2C)ccc2[nH]ccc12 [Compound 542, 5-(1-methyl-1H-imidazol-2-yl)-4-[(4-methyl-1H-indol-5-yl)amino]nicotinonitrile]"
3,1 nM,"COc1ccc(-c2cncc(C#N)c2Nc2ccc3[nH]ccc3c2C)cc1OCCNCCCc1ccccc1 [Compound 342, 5-(4-methoxy-3-{2-[(3-phenylpropyl)amino]ethoxy}phenyl)-4-[(4-methyl-1H-indol-5-yl)amino]nicotinonitrile]"
4,50 nM,"N#Cc1cncc(-c2ccc3[nH]ccc3c2)c1Nc1ccc2[nH]ccc2c1 [Compound 263, 5-(1H-indol-5-yl)-4-(1H-indol-5-ylamino)nicotinonitrile]"
5,20 nM,"N#Cc1cncc(-c2cccc(OC[C@@H](N)Cc3ccccc3)c2)c1Nc1cccc2[nH]ccc12 [Compound 366, 5-(3-{[(2S)-2-amino-3-phenylpropyl]oxy}phenyl)-4-(1H-indol-4-ylamino)nicotinonitrile]"
6,5 nM,"Cc1c(Nc2c(C#N)cncc2-c2ccc(OCCN3CCN(c4ccncc4)CC3)cc2)ccc2[nH]ccc12 [Compound 431, 4-[(4-methyl-1H-indol-5-yl)amino]-5-{4-[2-(4-pyridin-4-ylpiperazin-1-yl)ethoxy]phenyl}nicotinonitrile]"
